This note sets out measurements from article PMC10976219, “Purification and Biochemical Characterization of Polyphenol Oxidase Extracted from Wheat Bran (Wan grano)” (Molecules, 2024).

For the experiment, the system named is T1, wheat PPO (purified wheat bran polyphenol oxidase).
T1 construct: gene PPO-A1; native, purified from wheat bran (ammonium sulfate, DEAE-Sepharose, Superdex G-75); approx. 21 kDa on SDS-PAGE, dual bands 21 and 17 kDa
As to the kind of experiment: spectrophotometric oxidation assay at […] nm, Lineweaver-Burk. The class given is biochemical, Triticum aestivum. Particulars: 50 mM phosphate pH 6.5, 35 °C, 2-10 mM substrate.
`Oc1ccccc1O` [catechol]: the Km (usually the concentration of substrate that gives half-maximal velocity) came to 6.36 ± 0.71 mM.

As to `O=C(O[C@@H]1Cc2c(O)cc(O)cc2O[C@@H]1c1ccc(O)c(O)c1)c1cc(O)c(O)c(O)c1` [epicatechin gallate], the Km was determined as 7.9 ± 0.64 mM.

Take `Oc1cc(O)c2c(c1)O[C@H](c1ccc(O)c(O)c1)[C@H](O)C2` [epicatechin]: the Km turned out to be 8.01 ± 0.46 mM.

With `O=C(O[C@@H]1Cc2c(O)cc(O)cc2O[C@@H]1c1cc(O)c(O)c(O)c1)c1cc(O)c(O)c(O)c1` [epigallocatechin gallate], the Michaelis-Menten constant (Km) is 7.7 ± 0.14 mM.

Regarding `Oc1cc(O)c2c(c1)O[C@H](c1cc(O)c(O)c(O)c1)[C@H](O)C2` [epigallocatechin], the Km worked out at 9.05 ± 0.18 mM.

Consider `O=C(O)c1cc(O)c(O)c(O)c1` [gallic acid], for which the Michaelis constant (Km) is 7.05 ± 0.47 mM.

Consider `Oc1cccc(O)c1O` [pyrogallic acid], for which the Km turned out to be 7.37 ± 0.71 mM.
